From ChEMBL document CHEMBL1201862, “PubChem BioAssay data set” (2004)
The source made the active and inactive calls.

Assays:
[1] = cells; assay type: functional, cell-based
[2] = human group III sPLA2 inhibitors, dose response, biochemical, QFRET, IC50 (AID 743457);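 note: green fluorescence rise as the enzyme cleaves BODIPY PC-A2 in liposomes; potency for inhibition of the enzyme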
[3] = cells; assay type: functional, cell-based; remark: listed apart in the source
[4] = system: INS1; test: beta cell apoptosis inhibitors, cytokine rescue, dose response, luminescence, retest (AID 449756); assay type: functional, cell-based; conditions: Rattus norvegicus;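 note: cell death triggered by IL-1 beta plus TNF-alpha plus IFN-gamma mixture; protective hits raise ATP signal compared with cytokine alone wells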
[5] = biological target: Fructose-bisphosphate aldolase (Mycobacterium tuberculosis, UniProt P9WQA3); test: Fluorescence-based biochemical high throughput dose response assay for inhibitors of the fructose-bisphosphate aldolase (FBA) of M. tuberculosis.; assay type: functional
[6] = HEK293 cell cytotoxicity, dose response, cytotoxicity control, plate reader, cherry-picked samples (AID 743446); assay type: functional, cell-based
[7] = HepG2 cell cytotoxicity, dose response, cytotoxicity control, plate reader, cherry-pick, antagonist series (AID 743416); assay type: functional, cell-based
[8] = A549 cell cytotoxicity, dose response, cytotoxicity control, plate reader, cherry-pick, antagonist series (AID 743412); assay type: functional, cell-based
[9] = system: HeLa; test: HeLa cell cytotoxicity, dose response, cytotoxicity control, ATP luminescence, cherry-pick samples (AID 687004); assay type: functional, cell-based; conditions: Homo sapiens
[10] = HEK293 Cytotoxicity Assay Measured in Cell-Based System Using Plate Reader - 7071-01_Inhibitor_Dose_CherryPick_Activity_Set2.; assay type: functional
[11] = system: HEK293; test: HEK293T cell cytotoxicity, dose response, cytotoxicity control, ATP luminescence, cherry-pick samples (AID 687005); assay type: functional, cell-based; conditions: Homo sapiens;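 note: cells exposed to compound for 48 hours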
[12] = system: Cryptococcus neoformans; test: PubChem AID 686997; assay type: functional, organism-based
[13] = HEK293T cytotoxicity, dose response, cytotoxicity control for miR-122 modulator project, cell-based, inhibitor set, cherry-pick, set 2 (AID 720697); assay type: functional
[14] = T. cruzi growth inhibition in host cells, dose response, cell-based, plate reader, dry powder, set 2 (AID 652275); assay type: functional
[15] = biological target: Paired box protein Pax-8 (Homo sapiens, UniProt Q06710); test: inhibitors of PAX8-driven TPO luciferase reporter, dose response, RMG-I cells, cherry-pick (AID 687027); assay type: functional, cell-based;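 note: luciferase reporter driven by Pax8 target thyroperoxidase promoter measured by SteadyGlo luminescence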
[16] = non-specific cell cytotoxicity, dose response, cytotoxicity control for PAX8 inhibitor project, plate reader, dry powder samples (AID 743021); assay type: functional, cell-based
[17] = biological target: Galanin receptor type 3 (Homo sapiens, UniProt O60755); test: Fluorescence-based cell-based primary high throughput dose response assay to identify antagonists of the Galanin Receptor 3 (GalR3).; assay type: functional
Galanin receptor type 3, sequence (O60755 whole entry): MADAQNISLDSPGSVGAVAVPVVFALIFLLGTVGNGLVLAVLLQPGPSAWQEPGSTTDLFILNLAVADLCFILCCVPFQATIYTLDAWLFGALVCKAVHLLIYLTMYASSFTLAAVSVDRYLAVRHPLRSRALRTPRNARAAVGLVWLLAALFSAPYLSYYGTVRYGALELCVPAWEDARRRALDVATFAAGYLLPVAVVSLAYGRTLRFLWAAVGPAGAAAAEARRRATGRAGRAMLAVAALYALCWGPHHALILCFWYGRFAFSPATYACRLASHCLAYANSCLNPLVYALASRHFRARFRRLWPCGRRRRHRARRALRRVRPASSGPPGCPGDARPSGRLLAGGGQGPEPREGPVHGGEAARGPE

Paired box protein Pax-8, sequence (Q06710 whole entry): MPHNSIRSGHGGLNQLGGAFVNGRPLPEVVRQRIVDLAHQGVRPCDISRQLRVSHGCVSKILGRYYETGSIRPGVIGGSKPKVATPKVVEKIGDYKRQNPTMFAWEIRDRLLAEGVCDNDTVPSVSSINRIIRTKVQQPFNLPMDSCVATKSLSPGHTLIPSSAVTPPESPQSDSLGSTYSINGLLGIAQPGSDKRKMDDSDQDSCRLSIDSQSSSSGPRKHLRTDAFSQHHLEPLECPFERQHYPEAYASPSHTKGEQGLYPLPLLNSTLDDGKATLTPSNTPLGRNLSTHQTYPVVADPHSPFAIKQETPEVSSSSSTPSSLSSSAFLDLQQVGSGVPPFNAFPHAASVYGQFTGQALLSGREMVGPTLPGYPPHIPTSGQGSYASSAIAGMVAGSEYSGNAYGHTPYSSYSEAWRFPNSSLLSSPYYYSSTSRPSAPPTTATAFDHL
Fructose-bisphosphate aldolase, sequence (P9WQA3 whole entry): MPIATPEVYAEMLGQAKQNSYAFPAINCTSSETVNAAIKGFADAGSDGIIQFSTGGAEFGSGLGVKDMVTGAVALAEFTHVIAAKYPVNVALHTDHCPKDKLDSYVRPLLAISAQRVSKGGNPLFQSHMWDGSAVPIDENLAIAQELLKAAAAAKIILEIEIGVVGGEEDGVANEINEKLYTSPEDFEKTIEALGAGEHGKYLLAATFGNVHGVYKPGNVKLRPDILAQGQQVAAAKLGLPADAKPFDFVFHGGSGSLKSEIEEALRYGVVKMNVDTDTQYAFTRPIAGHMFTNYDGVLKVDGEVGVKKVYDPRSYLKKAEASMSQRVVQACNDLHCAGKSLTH

CCOC(=O)N1CCN(S(=O)(=O)c2ccc(C(=O)NNc3nc4c(C)cc(C)cc4s3)cc2)CC1
EC50 [1]: 14.5 µM (active) | IC50 [2]: 24.6 µM (inactive) | EC50 [3]: > 350 µM (not active) | AC50 [4]: 4.46 µM (active)

CCc1c(C)c2ccc(OCC(N)=O)cc2oc1=O
IC50 [5]: > 0.37 µM (active)

COc1ccc(S(=O)(=O)N2CCOCC2)cc1NC(=O)COc1ccc(C)cc1
AC50 [6]: 28.1 µM (active) | AC50 [7]: 8.95 µM (active) | AC50 [8]: 8.06 µM (active)

C[C@@H]1CN([C@H](C)CO)C(=O)c2c(c3ccccc3n2C)-c2ccccc2CO[C@H]1CN(C)S(=O)(=O)c1ccc(Cl)cc1
AC50 [9]: > 47 µM (inactive) | AC50 [10]: 23.1 µM (active) | AC50 [11]: 23.1 µM (active)

COC(=O)C1=C(C)N(Cc2ccc(F)cc2)C(=S)NC1c1ccccc1 (configuration not stated)
AC50 [12]: > 76 µM (inactive)

CCCC(=O)Nc1ccc2c(c1)C(=O)N(C)[C@@H]1CC[C@H](CC(=O)NCC(F)(F)F)O[C@H]1CO2
AC50 [13]: 2.15 µM (active)

CN1CCCCN2[C@@H](CO)[C@H](c3ccc(Br)cc3)[C@@H]2C1
AC50 [14]: 16 µM (active)

NC(=O)c1cn(C2OC(CO)C(O)C2O)c2ncnc(N)c12 (configuration not stated)
AC50 [15]: < 0.26 µM (active) | AC50 [16]: 0.591 µM (active) | IC50 [17]: 1.28 µM (active)
